From patent publication US20010044151A1, “Ligands for modulating the expression of exogenous genes via an ecdysone receptor complex” (priority 1998, published 2001)

Assays:
[1] = test system: Spodoptera exigua; assay: Translaminar movement into cotton leaves, mortality of neonate beet armyworm larvae; format: in vivo; conditions: versus CE-1
Experimental: A study was conducted to evaluate translaminar movement of two compounds into cotton leaves using neonate beet armyworm larvae, Spodoptera exigua, as the model system.
Two treatments were evaluated: emulsifiable concentrates of CE-1 and Ligand 3 (5% and 19%, respectively), at a concentration of 100 μg/ml to simulate spray tank concentrations. These treatments were then compared with plants treated with a chemical standard known to have excellent translaminar movement (emamectin benzoate, 0.16% EC [20 μg/ml], Merck & Co.) and with nontreated plants.
Four-week-old cotton, Gossypium hirsutum L. ev. Stoneville, plants were treated with each treatment by painting the top surface of a single replicate leaf/plant with a corresponding treatment. Plants were held in a controlled environment glasshouse maintained at 27° C. until needed. Residual effectiveness was evaluated by challenging treated and nontreated foliage with neonate beet armyworm larvae, Spodoptera exigua (Hubner), on 3 dates: 1, 7 and 14 days after treatment (DAT). On each sample date, the single treated leaf/plant was excised from each of five replicate plants per treatment. […] Mortality of larvae was recorded 4 days after infestation. […]
Percentage mortality data were transformed to the arcsine of the square-root and then analyzed by ANOVA using JMP (Ver. 3.2.1). […]

[2] = molecular target: CfEcR(CDEF)-GST and CfUSP-GST fusion proteins; assay: Competitive 3H-ponasterone A binding assay, bacterial GST fusion proteins; design: species or system Choristoneura fumiferana; conditions: bacterial CfEcR(CDEF)-GST/CfUSP-GST extracts, 3H-ponasterone A displacement
Description: Bacterial glutathion-S-transferase (GST) fusion proteins of the spruce budworm (Choristoneura fumiferana) EcR (CfEcR), containing CDEF domains only, and ultraspiracle protein (CfUSP) were also used in radioligand displacement assays. cDNA encoding the CDEF domains of CfEcR were constructed following PCR amplification using primers that contain BamH1 and EcoRI sites (Perera S C, M Sundaram, Krell P J, Retnakaran A, Dhadialla T S, S R Palli, 1999 Arch. Insect Biochem. Physiol. 41 In Press). The PCR produce was digested with BamHI and EcoRI and cloned into pGEX-3X vector obtained from Pharmacia Biotech. CfUSP coding region was amplified using primers that contain BamH1 and EcoRI sites and cloned into to pGEX-2T vector obtained from Pharmacia Biotech. E. coli transformed with each of the two vectors were grown and induced to produce the fusion proteins as detailed in the Pharmacia Biotech GST-technical bulletin.
The concentrations of competitors that inhibited 50% of tritiated ponasterone A binding (IC50) was determined by incubating Kc or Plodia nuclear extracts or extracts of bacteria producing CfEcR(CDEF)-GST and CfUSP-GST fusions proteins with ^3H-ponasterone A (66,000 dpm per reaction) in the presence of a range of concentrations (0.1 nM to 10 μM) of test compounds. In the case of binding reactions using bacterial fusion proteins, 20 or one μl extract of bacteria producing CfEcR(CDEF)-GST or CfUSP-GST fusion proteins, respectively, were included per binding reaction. The assay conditions and determination of total and non-specific binding was as described above. The volume of competitor in solvent, like that for 20E or solvent alone, was kept at 1% of total reaction volume by using a 100 fold concentrated stock solution (i.e. a 100 fold dilution of stock solutions). The remainder of the assay was as described above. Each reaction was carried out in duplicate per concentration per test compound. […]

With `COc1cccc(C(=O)NN(C(=O)c2cc(C)cc(C)c2)C(C)(C)C)c1C` [Ligand 3] the “Effectiveness at killing S. exigua larvae from translaminar movement (comparison in words)” value [1] was “significantly more effective than CE-1” and the “Bacterial CfECR log(1/IC50)” value [2] was 8.76.
